Legend:
Test in all cases: relative viability (nuclei count vs DMSO), 5 days (fraction); higher = more cells survive
[1] = tested on: HCC-366
Procedure, shortened: (§1)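 After 5 days of treatment, lung cancer cells in 1536-well plates were fixed and stained in a single step (final 0.05% Triton X-100, 1% formaldehyde, 1 ug/ml Hoechst) and their nuclei counted on 4× images. Treatment had been applied by pin tool the day after seeding as one drug alone or as a fixed anchor-drug dose with five library-drug doses (not always all listed) in √10 steps. Relative viability is the nuclei count of treated wells divided by that of vehicle wells, and values are medians of duplicate plates.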

[2] = tested on: NCI-H661
Procedure, shortened: as §1

[3] = tested on: HARA
Procedure, shortened: as §1

[4] = tested on: NCI-H596
Procedure, shortened: as §1

[5] = tested on: NCI-H1792
Procedure, shortened: as §1

[6] = tested on: NCI-H1395
Procedure, shortened: as §1

[7] = tested on: NCI-H1734
Procedure, shortened: as §1

[8] = tested on: NCI-H2405
Procedure, shortened: as §1

[9] = tested on: NCI-H2170
Procedure, shortened: as §1

[10] = tested on: LOU-NH91
Procedure, shortened: as §1

[11] = tested on: NCI-H647
Procedure, shortened: as §1

[12] = tested on: NCI-H2342
Procedure, shortened: as §1

[13] = tested on: NCI-H2087
Procedure, shortened: as §1

[14] = tested on: LC-2-ad
Procedure, shortened: as §1

[15] = tested on: SK-LU-1
Procedure, shortened: as §1

[16] = tested on: HCC-827
Procedure, shortened: as §1

[17] = tested on: BEN
Procedure, shortened: as §1

[18] = tested on: EKVX
Procedure, shortened: as §1

[19] = tested on: NCI-H1437
Procedure, shortened: as §1

[20] = tested on: SK-MES-1
Procedure, shortened: as §1

[21] = tested on: NCI-H1355
Procedure, shortened: as §1

[22] = tested on: NCI-H2009
Procedure, shortened: as §1

In the case of `NC(=O)Nc1cc(-c2cccc(F)c2)sc1C(=O)N[C@H]1CCCNC1` [AZD7762] + Nc1ncn([C@H]2C[C@H](O)[C@@H](CO)O2)c(=O)n1 [Decitabine] (partner 2 µM), the relative viability ([1]; first compound 0.01 µM) is reported as 0.332, the relative viability ([1]; first compound 0.03162 µM) is reported as 0.407 and the relative viability ([1]; first compound 0.1 µM) is reported as 0.337. For the same molecule, the relative viability ([1]; first compound 0.3162 µM) was 0.309, the relative viability ([1]; first compound 1 µM) was 0.154 and the relative viability ([2]; first compound 0.01 µM) was 0.689. The relative viability ([2]; first compound 0.03162 µM) was 0.62, the relative viability ([2]; first compound 0.1 µM) was 0.642 and the relative viability ([2]; first compound 0.3162 µM) was 0.609. It also gave a relative viability ([2]; first compound 1 µM) of 0.356, a relative viability ([3]; first compound 0.01 µM) of 0.633 and a relative viability ([3]; first compound 0.03162 µM) of 0.507. For the same molecule, the relative viability ([3]; first compound 0.1 µM) was 0.66, the relative viability ([3]; first compound 0.3162 µM) was 0.539 and the relative viability ([3]; first compound 1 µM) was 0.211. The relative viability ([4]; first compound 0.01 µM) was 0.978, the relative viability ([4]; first compound 0.03162 µM) was 1.02 and the relative viability ([4]; first compound 0.1 µM) was 1.01. The relative viability ([4]; first compound 0.3162 µM) was 1.1, the relative viability ([4]; first compound 1 µM) was 1.03 and the relative viability ([5]; first compound 0.01 µM) was 0.507. For the same molecule, the relative viability ([5]; first compound 0.03162 µM) was 0.579, the relative viability ([5]; first compound 0.1 µM) was 0.662 and the relative viability ([5]; first compound 0.3162 µM) was 0.582. The relative viability ([5]; first compound 1 µM) was 0.68, the relative viability ([6]; first compound 0.01 µM) was 0.866 and the relative viability ([6]; first compound 0.03162 µM) was 0.727. For the same molecule, the relative viability ([6]; first compound 0.1 µM) was 0.65, the relative viability ([6]; first compound 0.3162 µM) was 0.476 and the relative viability ([6]; first compound 1 µM) was 0.354. For the same molecule, the relative viability ([7]; first compound 0.01 µM) was 0.567, the relative viability ([7]; first compound 0.03162 µM) was 0.581 and the relative viability ([7]; first compound 0.1 µM) was 0.51. It also gave a relative viability ([7]; first compound 0.3162 µM) of 0.517, a relative viability ([7]; first compound 1 µM) of 0.39 and a relative viability ([8]; first compound 0.01 µM) of 0.806. The relative viability ([8]; first compound 0.03162 µM) was 0.777, the relative viability ([8]; first compound 0.1 µM) was 0.808 and the relative viability ([8]; first compound 0.3162 µM) was 0.765. The relative viability ([8]; first compound 1 µM) was 0.487, the relative viability ([9]; first compound 0.01 µM) was 0.465 and the relative viability ([9]; first compound 0.03162 µM) was 0.544. It also gave a relative viability ([9]; first compound 0.1 µM) of 0.497, a relative viability ([9]; first compound 0.3162 µM) of 0.581 and a relative viability ([9]; first compound 1 µM) of 0.436. The relative viability ([10]; first compound 0.01 µM) was 0.823, the relative viability ([10]; first compound 0.03162 µM) was 0.796 and the relative viability ([10]; first compound 0.1 µM) was 0.816. It also gave a relative viability ([10]; first compound 0.3162 µM) of 0.761, a relative viability ([10]; first compound 1 µM) of 0.673 and a relative viability ([11]; first compound 0.01 µM) of 0.475. For the same molecule, the relative viability ([11]; first compound 0.03162 µM) was 0.501, the relative viability ([11]; first compound 0.1 µM) was 0.441 and the relative viability ([11]; first compound 0.3162 µM) was 0.356. For the same molecule, the relative viability ([11]; first compound 1 µM) was 0.156, the relative viability ([12]; first compound 0.01 µM) was 0.68 and the relative viability ([12]; first compound 0.03162 µM) was 0.731. It also gave a relative viability ([12]; first compound 0.1 µM) of 0.805, a relative viability ([12]; first compound 0.3162 µM) of 0.821 and a relative viability ([12]; first compound 1 µM) of 0.854. It also gave a relative viability ([13]; first compound 0.01 µM) of 0.313, a relative viability ([13]; first compound 0.03162 µM) of 0.378 and a relative viability ([13]; first compound 0.1 µM) of 0.411. The relative viability ([13]; first compound 0.3162 µM) was 0.475, the relative viability ([13]; first compound 1 µM) was 0.332 and the relative viability ([14]; first compound 0.01 µM) was 0.853. It also gave a relative viability ([14]; first compound 0.03162 µM) of 0.901, a relative viability ([14]; first compound 0.1 µM) of 0.796 and a relative viability ([14]; first compound 0.3162 µM) of 0.649. For the same molecule, the relative viability ([14]; first compound 1 µM) was 0.682, the relative viability ([15]; first compound 0.01 µM) was 0.609 and the relative viability ([15]; first compound 0.03162 µM) was 0.782. The relative viability ([15]; first compound 0.1 µM) was 0.49, the relative viability ([15]; first compound 0.3162 µM) was 0.281 and the relative viability ([15]; first compound 1 µM) was 0.204. For the same molecule, the relative viability ([16]; first compound 0.01 µM) was 0.312, the relative viability ([16]; first compound 0.03162 µM) was 0.428 and the relative viability ([16]; first compound 0.1 µM) was 0.362. For the same molecule, the relative viability ([16]; first compound 0.3162 µM) was 0.338, the relative viability ([16]; first compound 1 µM) was 0.233 and the relative viability ([17]; first compound 0.01 µM) was 0.801. For the same molecule, the relative viability ([17]; first compound 0.03162 µM) was 0.984, the relative viability ([17]; first compound 0.1 µM) was 0.874 and the relative viability ([17]; first compound 0.3162 µM) was 0.872. The relative viability ([17]; first compound 1 µM) was 0.673, the relative viability ([18]; first compound 0.01 µM) was 0.456 and the relative viability ([18]; first compound 0.03162 µM) was 0.388. The relative viability ([18]; first compound 0.1 µM) was 0.326, the relative viability ([18]; first compound 0.3162 µM) was 0.395 and the relative viability ([18]; first compound 1 µM) was 0.37. For the same molecule, the relative viability ([19]; first compound 0.01 µM) was 0.638, the relative viability ([19]; first compound 0.03162 µM) was 0.622 and the relative viability ([19]; first compound 0.1 µM) was 0.721. It also gave a relative viability ([19]; first compound 0.3162 µM) of 0.656, a relative viability ([19]; first compound 1 µM) of 0.57 and a relative viability ([20]; first compound 0.01 µM) of 0.347. For the same molecule, the relative viability ([20]; first compound 0.03162 µM) was 0.394, the relative viability ([20]; first compound 0.1 µM) was 0.342 and the relative viability ([20]; first compound 0.3162 µM) was 0.289. The relative viability ([20]; first compound 1 µM) was 0.163, the relative viability ([21]; first compound 0.01 µM) was 0.352 and the relative viability ([21]; first compound 0.03162 µM) was 0.385. It also gave a relative viability ([21]; first compound 0.1 µM) of 0.317, a relative viability ([21]; first compound 0.3162 µM) of 0.407 and a relative viability ([21]; first compound 1 µM) of 0.475. It also gave a relative viability ([22]; first compound 0.01 µM) of 0.468, a relative viability ([22]; first compound 0.03162 µM) of 0.417 and a relative viability ([22]; first compound 0.1 µM) of 0.373. The relative viability ([22]; first compound 0.3162 µM) was 0.378 and the relative viability ([22]; first compound 1 µM) was 0.3.
